Results from the supplement of paper PMC10307832.

Legend:
Experiment in all cases: relative viability (nuclei count vs DMSO), 5 days (fraction); higher = more cells survive
[1] = compound: CC1=C(CC(=O)O)c2cc(F)ccc2/C1=C\c1ccc([S+](C)[O-])cc1 [Sulindac] + CC1(C)CCC(c2ccc(Cl)cc2)=C(CN2CCN(c3ccc(C(=O)NS(=O)(=O)c4ccc(N[C@H](CCN5CCOCC5)CSc5ccccc5)c(S(=O)(=O)C(F)(F)F)c4)cc3)CC2)C1 [Navitoclax] (partner 0.5 µM)
How it was run: (§1)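 A single step with final 0.05% Triton X-100, 1% formaldehyde and 1 ug/ml Hoechst fixed the cells and stained nuclei 5 days after treatment. Lung cancer cell lines in 1536-well plates had been treated by pin tool the day after seeding with one drug alone or a fixed anchor-drug dose plus five library-drug doses (not always all listed) in √10 steps, and nuclei were counted on 4× images. Relative viability is the ratio of nuclei in treated wells to nuclei in vehicle wells, taken as the median of duplicate plates.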

[2] = compound: CC1=C(CC(=O)O)c2cc(F)ccc2/C1=C\c1ccc([S+](C)[O-])cc1 [Sulindac] + CS(=O)(=O)CCNCc1ccc(-c2ccc3ncnc(Nc4ccc(OCc5cccc(F)c5)c(Cl)c4)c3c2)o1 [Lapatinib] (partner 2 µM)
How it was run: as §1

[3] = compound: CN[C@@H]1C[C@H]2O[C@@](C)([C@@H]1OC)n1c3ccccc3c3c4c(c5c6ccccc6n2c5c31)C(=O)NC4 [Staurosporine] + CC(C)C[C@H](NC(=O)[C@H](Cc1ccccc1)NC(=O)c1cnccn1)B(O)O [Bortezomib] (partner 0.002 µM)
How it was run: as §1

[4] = compound: CN[C@@H]1C[C@H]2O[C@@](C)([C@@H]1OC)n1c3ccccc3c3c4c(c5c6ccccc6n2c5c31)C(=O)NC4 [Staurosporine] + C[C@]1(O)C[C@@H](c2nc(-c3ccc4ccc(-c5ccccc5)nc4c3)c3c(N)nccn32)C1 [Linsitinib] (partner 1 µM)
How it was run: as §1

Cell Line	relative viability ([1]; first compound 0.08 µM)	relative viability ([1]; first compound 0.253 µM)	relative viability ([1]; first compound 0.8 µM)	relative viability ([1]; first compound 2.53 µM)	relative viability ([1]; first compound 8 µM)	relative viability ([2]; first compound 0.08 µM)	relative viability ([2]; first compound 0.253 µM)	relative viability ([2]; first compound 0.8 µM)	relative viability ([2]; first compound 2.53 µM)	relative viability ([2]; first compound 8 µM)	relative viability ([3]; first compound 0.005 µM)	relative viability ([3]; first compound 0.01581 µM)	relative viability ([3]; first compound 0.05 µM)	relative viability ([3]; first compound 0.1581 µM)	relative viability ([3]; first compound 0.5 µM)	relative viability ([4]; first compound 0.005 µM)	relative viability ([4]; first compound 0.01581 µM)	relative viability ([4]; first compound 0.05 µM)	relative viability ([4]; first compound 0.1581 µM)	relative viability ([4]; first compound 0.5 µM)
NCI-H1650	1.23	1.12	1.16	1.04	1.38	1.01	0.775	0.625	0.824	0.944	0.205	0.179	0.197	0.179	0.194	–	–	–	–	–
ChaGo-K-1	1.01	0.925	1.21	0.897	1.56	–	–	–	–	–	0.992	–	0.86	0.243	0.222	–	–	–	–	–
NCI-H661	–	–	–	–	–	0.512	0.413	0.474	0.564	0.557	0.716	0.453	0.341	0.275	0.228	0.458	0.384	0.258	0.245	0.226
NCI-H441	0.395	0.588	0.519	0.478	0.822	–	–	–	–	–	0.391	0.209	0.212	0.133	0.126	0.304	0.126	0.153	0.153	0.141
ABC-1	–	–	–	–	–	–	1.23	1.13	1.28	1.24	0.264	0.232	0.247	0.187	0.185	0.195	0.209	0.145	0.108	0.0957
LK-2	1.03	0.91	0.722	0.768	0.891	1.05	0.835	–	–	1.15	–	–	–	–	–	0.698	0.506	0.753	0.473	0.154
